From patent US6420435B1, “Method for treating gastrointestinal disorders” (priority 1999, dated 2002)

What was measured:
[1] = system: persons suffering from diagnosed peptic ulcers; assay: Treatment regimen in persons with diagnosed peptic ulcers; assay type: in vivo, human; conditions: 1,000 mg dose regimen, had to discontinue
From the text: The present invention is particularly useful in alleviating the severity and frequency of gastrointestinal disorders. […] As used herein, “gastrointestinal disorder” shall mean mild/moderate heartburn, stomach acid indigestion, and severe heartburn/GERD.

[2] = system: participants suffering from mild/moderate heartburn to severe heartburn/GERD; assay: Preliminary double-blind placebo study in 13 participants; assay type: in vivo, human; conditions: 1 capsule with 1 gram of 98% d-limonene, every day/every other day regimens
Method: A preliminary double-blind placebo study was conducted on 13 participants suffering from mild/moderate heartburn to severe heartburn/GERD. Seven participants were administered the product and six were administered a placebo. In the “limonene” group (i.e. 1 capsule containing 1 gram of 98% d-limonene), two participants were administered 1 capsule every day for five days followed by 1 capsule every other day for five days. The remaining “limonene” group participants were administered 1 capsule every other day for 20 days. In the “placebo” group, three participants were administered 1 placebo capsule (i.e. gelatin capsule containing soybean oil) daily for five days, followed by 1 capsule every other day for 5 days. Two participants were administered 1 placebo capsule every other day for 20 days while one participant having severe heartburn was administered 1 placebo capsule twice a day for 5 days, followed by 1 capsule every day for 5 days, followed by 1 capsule as needed. As shown in Table 4 (and FIG. 4), a significant difference in results was obtained between the two groups ([…]).

[3] = system: adults suffering from chronic heartburn or gastroesophagael reflux disorder (GERD); assay: Initial studies of d-limonene treatment regimen in 19 adults with chronic heartburn or GERD, symptom ratings on a scale of 1-10; assay type: in vivo, human; conditions: for % of participants (every day regimen) with symptom rating = 1-2: 1 capsule 1000 mg every day; for % of participants (every other day regimen) with symptom rating = 1-2: 1 capsule 1000 mg every other day; for % of all participants with symptom rating = 1-2: 1000 mg d-limonene capsule every day or every other day; for % of all participants with symptom rating = 1-2 / percentage of participants achieving complete relief of symptoms (rating of 1): all participants
Method: Initial studies of the inventive treatment regimen were conducted at different times on 19 adults suffering from chronic heartburn or gastroesophagael reflux disorder (GERD). […] Thirty-seven (37%) of the total participants in these initial studies were male ranging in age from 42 to 73 years (average age=50 years), while sixty-three (63%) of the participants were female ranging in age from 34 to 70 years (average age=43). All of the participants discontinued using their respective treatments of choice (i.e. over-the-counter (OTC) and/or prescription medications) at least one day prior to beginning the inventive treatment regimen. Prior to beginning the treatment regimen, each participant was asked to rate the frequency and severity of his/her gastrointestinal disorder symptoms on a scale of 1-10. For “severity of symptoms,” 1 corresponded to complete relief of symptoms while 10 corresponded to severe, painful symptoms. A rating of 2 would correspond to mild symptoms. For “frequency of symptoms,” 1 corresponded to complete relief of symptoms while 10 corresponded to daily symptoms.
Eleven of the participants were administered 1 capsule of d-limonene every other day for 20 days. Five of the participants were administered 1 capsule of d-limonene every day for 16 to 20 days. Each capsule contained 1000 mg of d-limonene having a purity of from 98.5% to 99.3%.
FIG. 3 is a graph illustrating the percentage of all the participants (i.e. those undergoing the every other day regimen and every day regimen) having a severity rating of 1.

[4] = In vitro studies on mechanism of action; conditions: suggested mechanism, coating the stomach wall
From the text: The present invention is directed to a method for treating gastrointestinal disorders and comprises the oral administration of a therapeutically effective amount of limonene, preferably a purified form of d-limonene (i.e. at least 98%), to a person in need of such treatment. “Limonene” as used herein shall include both d-limonene and 1-limonene. […] The inventor has discovered that oral administration of a therapeutically effective amount of purified, food grade limonene (preferably at least 98% pure d-limonene), taken once daily or once every other day for 2 to 20 days, will alleviate or eliminate entirely the symptoms, both in terms of frequency and severity, of gastrointestinal disorders, such disorders ranging from mild/moderate heartburn and gastric indigestion to severe heartburn or gastro esophageal reflux disorder (GERD).

[5] = system: individuals taking limonene; assay: Side effects of limonene having at least 98% purity; assay type: in vivo, human; conditions: limonene having at least a 98% purity
From the text: Any conventional distillation method known by those of ordinary skill in the art for obtaining a highly purified form of d-limonene (about 98% pure) may be employed. Example 3 illustrates one preferred distillation method for removing the majority of contaminants.

[6] = system: inventor with long history of severe heartburn; assay: Inventor's own use of limonene for severe heartburn; assay type: in vivo, human; conditions: 500 mg to 1000 mg every other day for 8-20 days
Method: Similar results were obtained on another adult taking 1000 mg every other day as well as on participants of studies discussed in more detail in Examples 1-2.

With `C=C(C)[C@H]1CC=C(C)CC1` [d-limonene] the “effect on severity of gastrointestinal symptoms in ulcer sufferers” value [1] was “increase in the severity of gastrointestinal symptoms”, the “Product vs. Placebo result (percentage of participants, rating criterion not given)” value ([2]; Day 4) was 29% and the “Product vs. Placebo result (percentage of participants, rating criterion not given)” value ([2]; Day 7) was 29%. The “Product vs. Placebo result (percentage of participants, rating criterion not given)” value ([2]; Day 9) was 71%, the “Product vs. Placebo result (percentage of participants, rating criterion not given)” value ([2]; Day 14) was 86% and the “% of participants (every day regimen) with symptom rating = 1-2” value (“% of participants (every day regimen)” below) ([3]; Day 2) was 14%. The “% of participants (every other day regimen) with symptom rating = 1-2” value ([3]; Day 2) was 42%, the “% of participants (every day regimen)” value ([3]; Day 4) was 29% and the “% of participants (every other day regimen) with symptom rating = 1-2” value ([3]; Day 4) was 42%. The “% of all participants with symptom rating = 1-2” value (shortened to “% of all participants”) ([3]; Day 4) was 32%, the “percentage of participants with severity and frequency symptom ratings of 1-2” value (“percentage of participants … of 1-2” below) ([3]; Day 4, mild/moderate heartburn group) was 55% and the “percentage of participants … of 1-2” value ([3]; Day 4, severe heartburn/GERD group) was 0%. For the same molecule, the “% of participants (every day regimen)” value ([3]; Day 7) was 57%, the “% of participants (every other day regimen) with symptom rating = 1-2” value ([3]; Day 7) was 67% and the “% of all participants” value ([3]; Day 7) was 63%. For the same molecule, the “percentage of participants … of 1-2” value ([3]; Day 7, mild/moderate heartburn group) was 82%, the “percentage of participants … of 1-2” value ([3]; Day 7, severe heartburn/GERD group) was 38% and the “% of participants (every day regimen)” value ([3]; Day 9) was 71%. For the same molecule, the “% of participants (every other day regimen) with symptom rating = 1-2” value ([3]; Day 9) was 75%, the “% of all participants” value ([3]; Day 9) was 74% and the “percentage of participants … of 1-2” value ([3]; Day 9, mild/moderate heartburn group) was 82%. For the same molecule, the “percentage of participants … of 1-2” value ([3]; Day 9, severe heartburn/GERD group) was 38%, the “percentage of participants … of 1-2” value ([3]; Day 11, mild/moderate heartburn group) was 91% and the “percentage of participants … of 1-2” value ([3]; Day 11, severe heartburn/GERD group) was 72%. For the same molecule, the “% of participants (every day regimen)” value ([3]; Day 14) was 86%, the “% of all participants” value ([3]; Day 14) was 89% and the “percentage of participants … of 1-2” value ([3]; Day 15, mild/moderate heartburn group) was 91%. The “percentage of participants … of 1-2” value ([3]; Day 15, severe heartburn/GERD group) was 88%, the “percentage of participants achieving complete relief of symptoms (rating of 1)” value ([3]; day 2) was “about 20%” and the “percentage of participants achieving complete relief of symptoms (rating of 1)” value ([3]; day 14) was 79%.

With `C=C(C)[C@H]1CC=C(C)CC1` [limonene] the “effect on gastric acid” value [4] was “neutralizing effect on gastric acid”, the “side effects such as diarrhea and headache” value [5] was “significantly reduced certain side effects” and the “severity and frequency of heartburn symptoms” value [6] was “alleviated permanently”.
